From the NIST ThermoML archive (doi:10.1016/j.fluid.2005.06.022) come the findings set out here.

Numbers after ± are expanded uncertainties.

A short description of data set [1]: refractive index (Na D-line) (dimensionless). The settings on record: 101.33 kPa, Liquid, Standard Abbe refractometry.
For data set [2] the following is noted: Liquid; for molar volume: 101.33 kPa.

On to `O=C1CCCCC1` [cyclohexanone], for which, in data set [1] (293.15 K), the refractive index – broadly, the speed of light in vacuum divided by its phase velocity in the sample – is reported as 1.451 ± 0.0012. Further, in data set [2] (293.15 K), the molar volume stood at 0.0001038 ± 5.7e-07 m3/mol. Further, the “vapor or sublimation pressure” value in data set [2] (426.35 K) and in data set [2] (426.85 K) was 94.7 ± 4.8 kPa each time.
With `N#Cc1cnccn1` [2-cyanopyrazine], the refractive index in data set [1] (293.15 K) is reported as 1.534 ± 0.0012. Moreover, the molar volume in data set [2] (293.15 K) is 8.952e-05 ± 5.2e-07 m3/mol. In addition, the vapor or sublimation pressure (commonly the pressure of vapour in equilibrium with the condensed phase) in data set [2] (476.05 K) stood at 94.7 ± 4.8 kPa.
For `C1CCCCC1` [cyclohexane], the refractive index in data set [1] (298.15 K) was found to be 1.4235 ± 0.0012. For the same compound, in data set [2] (298.15 K), the molar volume was 0.0001087 ± 5.9e-07 m3/mol. Also, in data set [2] (351.85 K), the “vapor or sublimation pressure” value is listed as 94.7 ± 4.8 kPa.
Consider `ClC(Cl)(Cl)Cl` [tetrachloromethane], for which the refractive index in data set [1] (298.15 K) is 1.4574 ± 0.0012. Besides, the molar volume in data set [2] (298.15 K) amounted to 9.708e-05 ± 6e-07 m3/mol. Further, in data set [2] (347.85 K), the “vapor or sublimation pressure” value is reported as 94.7 ± 4.8 kPa.
Turning to `Cc1cnccn1` [2-methylpyrazine], in data set [1] (293.15 K), the refractive index is recorded as 1.505 ± 0.0012. Also, the molar volume in data set [2] (293.15 K) is 9.138e-05 ± 5.1e-07 m3/mol. Besides, the “vapor or sublimation pressure” value in data set [2] (396.65 K) was determined as 94.7 ± 4.8 kPa.
On to `C=CC#N` [acrylonitrile], for which the refractive index in data set [1] (298.15 K) amounted to 1.3888 ± 0.0012. For the same compound, in data set [2] (298.15 K), the molar volume stood at 6.629e-05 ± 3.6e-07 m3/mol. Besides, in data set [2] (348.55 K), the “vapor or sublimation pressure” value was 94.7 ± 4.8 kPa.
